The source of these data is patent US10774051B2, “6-membered heterocyclic derivatives and pharmaceutical composition comprising the same” (Shionogi & Co., Ltd., priority 2015, dated 2020).

In the first experiment the target is human P2X7 receptor (Homo sapiens, UniProt Q99572, R270H/Y155H). The experiment can be described thus: Evaluation of human P2X7 receptor inhibitory activity (Yo-Pro uptake, BzATP stimulation, FLIPR TETRA). Type of experiment: cell-based. As to conditions: 1321N1 cells stably expressing human P2X7 receptor; BzATP stimulation, Yo-Pro uptake; read-out: IC50 (antagonistic activity for the human P2X7 receptor). A digest of the protocol: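 Yo-Pro dye uptake triggered by BzATP was monitored by FLIPR in human P2X7-transfected 1321N1 cells (SNP variant) in HEPES-buffered HBSS, pH 7.4-7.5. Compound was dispensed 8 min post-stimulation, then signal read for 20 min; IC50 derived logistically from inhibition of the fluorescence range.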
The term IC50 denotes the concentration at which inhibition is half-maximal. Take `Cc1ccc(-c2ncco2)cc1Nc1nc(=O)c(F)cn1Cc1ccc(F)c(Cl)c1` [Compound I-0849]: the IC50 was 3 nM.

`CCOC(=O)c1cn(Cc2ccccc2)c(Nc2cc(C)c(C)cc2C)nc1=O` [Compound I-0196]: the IC50 turned out to be 13 nM.

Turning to `C=Cc1ccccc1Nc1nc(=O)c(F)cn1Cc1cc(F)c(F)c(F)c1` [Compound I-1188], the IC50 is 4 nM.

On to `COc1cnc(Nc2cc3sc(C)nc3cc2C)n(Cc2ccc(F)c(Cl)c2)c1=O` [Compound I-0987], for which the IC50 worked out at 110 nM.

Turning to `COc1cn(Cc2cc(F)c(F)c(F)c2)c(Nc2cccc3sccc23)nc1=O` [Compound I-0626], the IC50 came to 4 nM.

Staying with this experiment, now noted: 1321N1 cells stably expressing human P2X7 receptor; BzATP stimulation, Yo-Pro uptake; read-out: IC50 (antagonistic activity for the human P2X7 receptor), class symbol.
Turning to `CCc1ccc(OC)cc1Nc1nc(=O)c(OC)cn1Cc1ccc(F)c(F)c1` [Compound I-0255], the half-maximal inhibitory concentration (IC50) was less than 10 nM.

`COc1cn(Cc2ccccc2)c(Nc2cc(Cl)c(Cl)cc2C)nc1=O` [Compound I-0464]: the IC50 was less than 10 nM.

As to `COc1cn(Cc2cc(F)cc(F)c2)c(Nc2ccc(OC(F)F)cc2C)nc1=O` [Compound I-0539], the IC50 lay in the range of 10 to 100 nM.

`Cc1c(Cl)cccc1Nc1nc(=O)c(CC(=O)N(C)C)cn1Cc1ccccc1` [Compound I-0331]: the IC50 is 100 to 500 nM.

Regarding `COc1cn(Cc2ccc(F)c(F)c2)c(Nc2ccc(N3CCOCC3)cc2C)nc1=O` [Compound I-0519], the IC50 lay in the range of 10 to 100 nM.

Consider `COc1cn(Cc2ccc(F)cc2)c(Nc2cc(C)c(Cl)cc2C)nc1=O` [Compound I-0169], for which the IC50 is less than 10 nM.

With `COc1cn(Cc2cccc(F)c2)c(Nc2cccc(Cl)c2C)nc1=O` [Compound I-0039], the IC50 is 10 to 100 nM.

With `CCc1c(Nc2nc(=O)c(OC)cn2Cc2cccc(Cl)c2)cccc1OC` [Compound I-0214], the IC50 was less than 10 nM.

Consider `CCc1cc2c(cc1Nc1nc(=O)c(OC)cn1Cc1ccc(F)cc1)CCC2` [Compound I-0163], for which the IC50 was less than 10 nM.

In the case of `COc1cn(Cc2ccc(F)cc2)c(Nc2cccc(N(C)C)c2C)nc1=O` [Compound I-0401], the IC50 is 10 to 100 nM.

Consider `COc1cn(Cc2ccccc2)c(Nc2cc(S(=O)(=O)Nc3ccccc3)c(F)cc2C)nc1=O` [Compound I-0415], for which the IC50 is 500 to 1000 nM.

As to `COc1cc(C)c(Nc2nc(=O)c(F)cn2Cc2ccc(F)c(Cl)c2)cc1C` [Compound I-0349], the IC50 is less than 10 nM.

Turning to `COc1cc(Nc2nc(=O)c(OC)cn2Cc2ccc(F)c(F)c2)c(C)cc1Cl` [Compound I-0535], the IC50 is less than 10 nM.

Turning to `COc1cn(Cc2ccc(F)c(Cl)c2)c(Nc2cc(Cl)c(Cl)cc2C)nc1=O` [Compound I-0426], the IC50 is 10 to 100 nM.

Consider `COc1cn(Cc2ccc(F)c(Cl)c2)c(Nc2cccc3sccc23)nc1=O` [Compound I-0486], for which the IC50 was less than 10 nM.

Consider `COc1cc(Nc2nc(=O)c(OC)cn2Cc2ccccc2)c(C)cc1Cl` [Compound I-0473], for which the IC50 was less than 10 nM.

`COc1cn(Cc2ccccc2)c(Nc2cc(-n3cccc3)ccc2C)nc1=O` [Compound I-0239]: the IC50 fell in the range of 100 to 500 nM.

For `COc1cn(Cc2ccccc2)c(Nc2ccc(N3CCOCC3)cc2C)nc1=O` [Compound I-0204], the IC50 is 100 to 500 nM.

Regarding `COc1cn(Cc2ccccc2)c(Nc2ccccc2C)nc1=O` [Compound I-0061], the IC50 fell in the range of 500 to 1000 nM.

Regarding `Cc1c(Cl)cccc1Nc1nc(=O)c(F)cn1Cc1ccc(F)cc1` [Compound I-0041], the IC50 is less than 10 nM.

As for `CCc1ccccc1Nc1nc(=O)c(OC)cn1Cc1ccccc1` [Compound I-0084], the IC50 lay within 10 to 100 nM.

`COc1cc(Nc2nc(=O)c(OC)cn2Cc2ccc(F)c(Cl)c2)c(C)cc1Cl` [Compound I-0536]: the concentration for half-maximal inhibition (IC50) is less than 10 nM.

`COc1cn(Cc2ccccc2)c(Nc2cc([N+](=O)[O-])ccc2C)nc1=O` [Compound I-0155]: the IC50 was 500 to 1000 nM.

In the case of `COc1cn(Cc2cc(F)cc(F)c2)c(Nc2ccc(N3CCOCC3)cc2C)nc1=O` [Compound I-0543], the IC50 is 10 to 100 nM.

Consider `COc1cc(C)c(Nc2nc(=O)c(F)cn2Cc2ccc(F)cc2)cc1C` [Compound I-0319], for which the IC50 is less than 10 nM.

Consider `COc1cn(Cc2ccccc2)c(Nc2cc(Br)ccc2C)nc1=O` [Compound I-0386], for which the IC50 was in the range of 10 to 100 nM.

In the case of `CCc1cc(OC)c(OC)cc1Nc1nc(=O)c(OC)cn1Cc1ccc(F)cc1` [Compound I-0270], the IC50 was less than 10 nM.

For the compound `COc1cc(C)cc(Nc2nc(=O)c(OC)cn2Cc2ccc(F)c(F)c2)c1C` [Compound I-0404], the IC50 is less than 10 nM.

On to `CCc1cc(Cl)ccc1Nc1nc(=O)c(OC)cn1Cc1cc(F)cc(F)c1` [Compound I-0542], for which the IC50 was in the range of 10 to 100 nM.

The same experiment, now with this note: antagonistic activity for the human P2X7 receptor; read-out: IC50.
Regarding `COc1ccc(Nc2nc(=O)c(C)cn2Cc2cc(F)c(F)c(F)c2)c(C)c1` [Compound I-1154], the half-inhibitory concentration (IC50) was less than 10 nM.

Consider `C=C1C(c2cc(Nc3nc(=O)c(F)cn3Cc3cc(F)c(F)c(F)c3)c(C)cc2F)=CC=CN1C` [Compound I-1222], for which the IC50 was less than 10 nM.

With `COc1cn(Cc2ccc(F)c(Cl)c2)c(Nc2ccc3c(c2C)COC3)nc1=O` [Compound I-0907], the concentration for half-maximal inhibition (IC50) is less than 10 nM.

`COc1cn(Cc2cc(F)cc(F)c2)c(Nc2cc(N3CCCC3)ccc2C)nc1=O` [Compound I-0885]: the IC50 fell in the range of 10 to 100 nM.

For `Cc1nc2cc(C)c(Nc3nc(=O)cnn3Cc3cc(F)c(F)c(F)c3)cc2s1` [Compound I-1284], the IC50 was less than 10 nM.

On to `COc1cc(Cl)c(Nc2nc(=O)c(F)cn2Cc2cc(F)c(F)c(F)c2)cc1F` [Compound I-1239], for which the IC50 was less than 10 nM.

In the case of `CCc1cc2c(cc1Nc1nc(=O)c(OC)cn1Cc1ccc(F)c(Cl)c1)OCO2` [Compound I-0688], the IC50 was less than 10 nM.

On to `COc1cc(C)c(Nc2nc(=O)c(OC)cn2Cc2cc(F)c(F)c(F)c2)cc1Cl` [Compound I-0763], for which the IC50 was less than 10 nM.

Regarding `Cc1ccc(CF)cc1Nc1nc(=O)c(F)cn1Cc1cc(F)c(F)c(F)c1` [Compound I-1231], the IC50 was less than 10 nM.

Consider `COc1ccc(Nc2nc(=O)cc(C)n2Cc2cc(F)c(F)c(F)c2)c(C)c1` [Compound I-1167], for which the IC50 is less than 10 nM.

With `CCOc1cc(Nc2nc(=O)c(OC)cn2Cc2ccc(F)c(Cl)c2)c(C)cc1F` [Compound I-0919], the IC50 was 10 to 100 nM.

As for `CCc1cc(F)c(OC)cc1Nc1nc(=O)c(OC)cn1Cc1ccc(F)c(Cl)c1` [Compound I-0814], the IC50 was less than 10 nM.

In the case of `COc1cn(Cc2ccc(F)c(F)c2)c(Nc2cc(OC3CC3)ccc2C)nc1=O` [Compound I-0890], the IC50 lay in the range of 10 to 100 nM.

For `COc1cn(Cc2cc(F)cc(F)c2)c(Nc2cc3[nH]ccc3cc2C)nc1=O` [Compound I-0620], the IC50 is less than 10 nM.

On to `Cc1cc2c(cc1Nc1nc(=O)c(F)cn1Cc1ccc(F)c(F)c1)CCO2` [Compound I-1072], for which the IC50 was less than 10 nM.

Turning to `Cc1nc2[nH]ccc2cc1Nc1nc(=O)c(F)cn1Cc1cc(F)cc(F)c1` [Compound I-1016], the IC50 was 10 to 100 nM.

For the compound `CCOc1ccc(Cl)c(Nc2nc(=O)c(F)cn2Cc2cc(F)c(F)c(F)c2)c1` [Compound I-1217], the IC50 is less than 10 nM.

On to `COc1cn(Cc2cc(F)cc(F)c2)c(Nc2cc(Cl)c(F)cc2C)nc1=O` [Compound I-0812], for which the IC50 lay in the range of 10 to 100 nM.

As for `COc1cn(Cc2cc(F)c(F)c(F)c2)c(Nc2cc(N3CCOCC3)ccc2C)nc1=O` [Compound I-0931], the IC50 lay within 10 to 100 nM.

For `CCOc1ccc(Nc2nc(=O)c(F)cn2Cc2cc(F)cc(F)c2)c(C)c1` [Compound I-1047], the IC50 lay within 10 to 100 nM.

Take `Cc1ccccc1Nc1nc(=O)c(F)cn1Cc1cc(F)c(F)c(F)c1` [Compound I-1082]: the IC50 was less than 10 nM.

Regarding `COc1cc(C)c(Nc2nc(=O)c(OC)cn2Cc2cc(F)cc(F)c2)cc1F` [Compound I-0721], the IC50 was less than 10 nM.

For `Cc1nc2[nH]ccc2cc1Nc1nc(=O)c(F)cn1Cc1cc(F)c(F)c(F)c1` [Compound I-1017], the IC50 was 10 to 100 nM.

Turning to `COCc1cn(Cc2cc(F)c(F)c(F)c2)c(Nc2cc(-c3nnco3)ccc2C)nc1=O` [Compound I-1131], the IC50 fell in the range of 10 to 100 nM.

For `CCc1ccc(F)c(Nc2nc(=O)c(F)cn2Cc2cc(F)c(F)c(F)c2)c1` [Compound I-1218], the IC50 was less than 10 nM.

With `COc1cn(Cc2cc(F)cc(F)c2)c(Nc2cc3c(cc2C)OCCC3)nc1=O` [Compound I-0913], the IC50 fell in the range of 10 to 100 nM.

Regarding `Cc1ccc(F)cc1Nc1nc(=O)c(CO)nn1Cc1cc(F)c(F)c(F)c1` [Compound I-1253], the IC50 fell in the range of 10 to 100 nM.

With `COc1cc(C)c(Nc2nc(=O)c(F)cn2Cc2cc(F)cc(F)c2)cc1F` [Compound I-1101], the IC50 lay within 10 to 100 nM.

Regarding `COc1cn(Cc2ccc(F)c(Cl)c2)c(Nc2cc(Cl)cc3[nH]ccc23)nc1=O` [Compound I-0819], the IC50 lay in the range of 10 to 100 nM.

Turning to `CCOc1cn(Cc2ccccc2)c(Nc2cc(OC)c(OC)cc2C)nc1=O` [Compound I-0759], the IC50 was 10 to 100 nM.

Consider `COc1cc(C)c(Nc2nc(=O)c(OC)cn2Cc2cc(F)cc(Cl)c2)cc1Cl` [Compound I-0672], for which the IC50 is less than 10 nM.

Take `CCOc1cc(Nc2nc(=O)c(OC)cn2Cc2ccc(F)c(F)c2)c(C)cc1C` [Compound I-0793]: the half-maximal inhibitory concentration (IC50) is less than 10 nM.

Regarding `CON=c1nc(Nc2cc3sc(C)nc3cc2C)n(Cc2cc(F)c(F)c(F)c2)cc1F` [Compound I-1291], the IC50 fell in the range of 100 to 500 nM.

In the case of `COc1ccc(Nc2nc(=O)c(Cl)cn2Cc2ccc(F)c(F)c2)c(C)c1` [Compound I-0844], the IC50 is less than 10 nM.

`COc1cn(Cc2ccccc2)c(Nc2cc(Cl)cc3[nH]ccc23)nc1=O` [Compound I-0818]: the IC50 lay in the range of 10 to 100 nM.

As to `Cc1cc2c(cc1Nc1nc(=O)cnn1Cc1cc(F)c(F)c(F)c1)COC2` [Compound I-1280], the IC50 was less than 10 nM.

For `Cc1c(Nc2nc(=O)c(F)cn2Cc2cc(F)cc(F)c2)ccc2scnc12` [Compound I-1202], the IC50 is less than 10 nM.
